According to patent publication US20260176289A1, “SMALL MOLECULE INHIBITORS OF KRAS PROTEINS” (Merck Sharp & Dohme LLC, priority 2022, published 2026):

Experiments:
Format in all cases: biochemical
[1] = molecular target: T1, KRAS G12D (amino acids 1-169) (Homo sapiens, UniProt P01116, G12D); assay: SOS-catalyzed nucleotide exchange assay (Procedure B, BODIPY FL GDP displacement), KRAS G12D; conditions: read-out: KRAS G12D GNE IC50
T1 construct: made in house; host or cells: E. coli
Method in brief: (§1)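 Purified BODIPY FL GDP-loaded KRAS (aa 1-169, E. coli-expressed), 2.5 nM, preincubated with compound 1 h at 25° C in Tris pH 7.5/MgCl2 buffer; SOS1 (aa 564-1049) plus GMPPNP then added, 30 min at room temperature. Fluorescence ratio before/after exchange normalized to DMSO and no-SOS1/GMPPNP controls; IC50 by 4-parameter logistic fit.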

[2] = molecular target: T2, KRAS WT (amino acids 1-169) (Homo sapiens, UniProt P01116); assay: SOS-catalyzed nucleotide exchange assay (Procedure B, BODIPY FL GDP displacement), KRAS WT; conditions: read-out: KRAS WT GNE IC50
T2 construct: made in house; host or cells: E. coli
T2 sequence (P01116 with tags, fused parts or gaps isoform P01116-2): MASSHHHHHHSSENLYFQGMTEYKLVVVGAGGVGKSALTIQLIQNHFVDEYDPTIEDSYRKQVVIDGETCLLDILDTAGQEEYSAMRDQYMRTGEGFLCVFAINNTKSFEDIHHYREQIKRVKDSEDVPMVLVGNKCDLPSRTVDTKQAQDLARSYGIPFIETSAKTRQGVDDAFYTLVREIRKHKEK
Method in brief: as §1

[3] = molecular target: T3, KRAS G12C (amino acids 1-169) (Homo sapiens, UniProt P01116, G12C); assay: SOS-catalyzed nucleotide exchange assay (Procedure B, BODIPY FL GDP displacement), KRAS G12C; conditions: read-out: KRAS G12C GNE IC50
T3 construct: made in house; host or cells: E. coli
T3 sequence (P01116 with tags, fused parts or gaps isoform P01116-2 G12C): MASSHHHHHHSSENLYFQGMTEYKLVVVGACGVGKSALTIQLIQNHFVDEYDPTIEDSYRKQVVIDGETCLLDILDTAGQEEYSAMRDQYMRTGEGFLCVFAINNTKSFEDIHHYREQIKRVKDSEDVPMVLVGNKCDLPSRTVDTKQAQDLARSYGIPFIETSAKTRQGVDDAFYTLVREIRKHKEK
Method in brief: as §1

[4] = molecular target: T4, KRAS G12V (amino acids 1-169) (Homo sapiens, UniProt P01116, G12V); assay: SOS-catalyzed nucleotide exchange assay (Procedure B, BODIPY FL GDP displacement), KRAS G12V; conditions: read-out: KRAS G12V GNE IC50
T4 construct: made in house; host or cells: E. coli
T4 sequence (P01116 with tags, fused parts or gaps isoform P01116-2 G12V): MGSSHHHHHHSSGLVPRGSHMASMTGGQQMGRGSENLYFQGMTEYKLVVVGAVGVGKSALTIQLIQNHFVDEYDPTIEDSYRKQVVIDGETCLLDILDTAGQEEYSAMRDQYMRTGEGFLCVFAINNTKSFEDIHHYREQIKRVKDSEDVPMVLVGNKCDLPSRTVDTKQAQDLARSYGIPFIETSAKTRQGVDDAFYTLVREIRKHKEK
Method in brief: as §1

T1 sequence (P01116 with tags, fused parts or gaps isoform P01116-2 G12D): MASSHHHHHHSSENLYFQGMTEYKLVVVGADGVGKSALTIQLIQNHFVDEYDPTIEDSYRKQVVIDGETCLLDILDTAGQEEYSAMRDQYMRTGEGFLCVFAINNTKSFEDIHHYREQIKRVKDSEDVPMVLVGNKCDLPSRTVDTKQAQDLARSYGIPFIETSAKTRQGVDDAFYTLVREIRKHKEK

Row | IC50 [1] [nM] | IC50 [2] [nM] | IC50 [3] [nM] | IC50 [4] [nM] | SMILES
1 | 1470 | 1350 | 1920 | 2370 | Cc1cc2[nH]nc(I)c2c(-c2nccc3c2sc2nc(OC[C@@]45CCCN4C[C@H](F)C5)nc(N4CCOC[C@@](C)(O)C4)c23)c1C(F)(F)F [Ex-149, (6S)-4-(2-(((2R,7aS)-2-fluorotetrahydro-1H-pyrrolizin-7a(5H)-yl)methoxy)-8-(3-iodo-6-methyl-5-(trifluoromethyl)-1H-indazol-4-yl)pyrido[4′,3′:4,5]thieno[2,3-d]pyrimidin-4-yl)-6-methyl-1,4-oxazepan-6-ol]
2 | 438 | 432 | 340 | 490 | CC(=O)N1CC(Nc2nc(OC[C@@]34CCCN3C[C@H](F)C4)nc3sc4c(-c5c(C(F)(F)F)c(C)cc6[nH]ncc56)nccc4c23)C1 [Ex-190, 1-(3-((2-(((2R,7aS)-2-fluorotetrahydro-1H-pyr-rolizin-7a(5H)-yl)meth-oxy)-8-(6-methyl-5-(tri-fluoromethyl)-1H-indazol-4-yl)pyrido[4′,3′:4,5]thieno[2,3-d]pyrimidin-4-yl)amino)azetidin-1-yl)-ethan-1-one]
3 | 21.9 | 57.3 | 39 | 97.2 | C[C@@H]1C[C@@H]1c1c(Cl)cc2[nH]ncc2c1-c1nccc2c1sc1nc(OC[C@@]34CCCN3C[C@H](F)C4)nc(N3CCOC[C@@](C)(O)C3)c12 (atropisomer, axis not shown; (aS)) [Ex-68, (S)-4-((R)-8-(6-chloro-5-((1S,2R)-2-methylcyclopropyl)-1H-indazol-4-yl)-2-(((2R,7aS)-2-fluorotetrahydro-1H-pyrrolizin-7a(5H)-yl)methoxy)pyrido[4′,3′:4,5]thi-eno[2,3-d]pyrimidin-4-yl)-6-methyl-1,4-oxazepan-6-ol]
4 | 1.64 | 3.13 | 7.03 | 3.7 | C=CC1CCc2cc3[nH]ncc3c(-c3nccc4c3sc3nc(OC[C@@]56CCCN5C[C@H](F)C6)nc(N5CCOC[C@@](C)(O)C5)c34)c21 (single isomer, unassigned) [Ex-93]
5 | 13.1 | 34 | 24.9 | 33.9 | C#Cc1c(Cl)cc2[nH]ncc2c1-c1nccn2c1c(F)c1nc(OC[C@@]34CCCN3C[C@H](F)C4)nc(N3CCOC[C@@](C)(O)C3)c12 [Ex-304, (S)-4-(9-(6-chloro-5-ethynyl-1H-indazol-4-yl)-10-fluoro-2-(((2R,7aS)-2-fluorotetrahydro-1H-pyrrolizin-7a(5H)-yl)methoxy)pyrazino[1′,2′:1,5]pyrrolo[3,2-d]pyrimidin-4-yl)-6-methyl-1,4-oxazepan-6-ol]
6 | 1320 | 1480 | 787 | 758 | Cc1cc2[nH]ncc2c(-c2nccc3c2sc2nc(OC[C@@]45CCCN4C[C@H](F)C5)nc(NC45CC(C4)C5)c23)c1C(F)(F)F [Ex-181, N-(bicyclo[1.1.1]pentan-1-yl)-2-(((2R,7aS)-2-fluoro-tetrahydro-1H-pyrrolizin-7a(5H)-yl)-methoxy)-8-(6-methyl-5-(trifluoromethyl)-1H-indazol-4-yl)pyrido [4′,3′:4,5]thieno[2,3-d] pyrimidin-4-amine]
7 | 57.6 | 167 | 55.1 | 61.3 | Cc1cc2[nH]ncc2c(-c2nccc3c2sc2nc(OC[C@@]45CCCN4C[C@H](F)C5)nc(N4CCOCC5(CC(=O)N5)C4)c23)c1C(F)(F)F (stereo partly drawn) [Ex-194, 9-(2-(((2R,7aS)-2-fluoro-tetrahydro-1H-pyrrolizin-7a(5/7)-yl)methoxy)-8-(6-methyl-5-(trifluorometh-yl)-1H-indazol-4-yl)pyrido [4′,3′:4,5]thieno[2,3-d]pyrimidin-4-yl)-6-oxa-1,9-diazaspiro[3.6]decan-2-one]
